Source: ChEMBL document CHEMBL5291721, “A preclinical secondary pharmacology resource illuminates target-adverse drug reaction associations of marketed drugs” (Nat Commun, 2023)

How the values were obtained:
[1] = target: T1, Prostaglandin G/H synthase 1 (Homo sapiens, UniProt P23219); format: functional
[2] = target: D(3) dopamine receptor (Homo sapiens, UniProt P35462)
[3] = target: Sodium-dependent noradrenaline transporter (Homo sapiens, UniProt P23975)
[4] = target: T2, Thromboxane A2 receptor (Homo sapiens, UniProt P21731); format: functional, cell-based
T2 sequence (P21731 whole entry): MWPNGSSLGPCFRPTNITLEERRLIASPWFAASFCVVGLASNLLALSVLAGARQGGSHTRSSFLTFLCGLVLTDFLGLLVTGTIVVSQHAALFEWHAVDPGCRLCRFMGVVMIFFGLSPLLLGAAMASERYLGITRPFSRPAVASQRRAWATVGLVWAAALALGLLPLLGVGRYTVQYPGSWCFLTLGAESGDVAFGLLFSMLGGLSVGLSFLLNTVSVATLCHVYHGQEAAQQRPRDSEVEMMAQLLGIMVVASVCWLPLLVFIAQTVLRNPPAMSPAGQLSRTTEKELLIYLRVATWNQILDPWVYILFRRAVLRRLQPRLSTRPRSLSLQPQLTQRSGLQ

[5] = target: Vascular endothelial growth factor receptor 2 (Homo sapiens, UniProt P35968); format: functional
[6] = target: T3, Estrogen receptor (Homo sapiens, UniProt P03372)
T3 sequence (P03372 whole entry): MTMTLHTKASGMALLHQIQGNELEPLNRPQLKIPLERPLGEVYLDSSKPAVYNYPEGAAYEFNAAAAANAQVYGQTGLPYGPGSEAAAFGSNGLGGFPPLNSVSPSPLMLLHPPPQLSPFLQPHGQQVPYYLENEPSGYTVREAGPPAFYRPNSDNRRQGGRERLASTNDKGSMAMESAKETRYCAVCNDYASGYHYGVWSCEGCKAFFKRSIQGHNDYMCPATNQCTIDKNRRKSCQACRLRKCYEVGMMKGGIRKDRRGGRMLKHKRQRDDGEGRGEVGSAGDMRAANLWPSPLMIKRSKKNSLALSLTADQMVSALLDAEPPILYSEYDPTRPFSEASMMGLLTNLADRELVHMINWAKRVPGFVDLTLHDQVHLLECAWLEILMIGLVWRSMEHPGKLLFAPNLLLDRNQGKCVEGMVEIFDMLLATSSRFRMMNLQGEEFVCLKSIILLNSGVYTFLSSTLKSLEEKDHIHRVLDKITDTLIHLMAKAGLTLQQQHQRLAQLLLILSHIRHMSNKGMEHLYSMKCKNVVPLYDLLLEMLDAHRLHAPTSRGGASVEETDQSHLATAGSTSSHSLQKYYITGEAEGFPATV

[7] = target: T4, 5-hydroxytryptamine receptor 1A (Homo sapiens, UniProt P08908)
T4 sequence (P08908 whole entry): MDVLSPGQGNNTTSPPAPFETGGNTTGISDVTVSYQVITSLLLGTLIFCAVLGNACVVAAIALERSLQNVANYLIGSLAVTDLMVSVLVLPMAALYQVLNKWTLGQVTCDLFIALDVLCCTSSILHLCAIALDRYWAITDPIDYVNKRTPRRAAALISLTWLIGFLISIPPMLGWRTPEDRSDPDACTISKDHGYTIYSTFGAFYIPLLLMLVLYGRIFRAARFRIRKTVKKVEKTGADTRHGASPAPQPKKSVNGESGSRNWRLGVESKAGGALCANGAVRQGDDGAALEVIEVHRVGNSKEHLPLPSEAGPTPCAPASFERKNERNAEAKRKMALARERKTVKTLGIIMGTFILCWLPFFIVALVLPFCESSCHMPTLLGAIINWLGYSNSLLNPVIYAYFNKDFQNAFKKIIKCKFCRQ

[8] = target: T1, Prostaglandin G/H synthase 1; format: functional; remark: listed apart in the source
[9] = target: T5, Muscarinic acetylcholine receptor M2 (Homo sapiens, UniProt P08172)
T5 sequence (P08172 whole entry): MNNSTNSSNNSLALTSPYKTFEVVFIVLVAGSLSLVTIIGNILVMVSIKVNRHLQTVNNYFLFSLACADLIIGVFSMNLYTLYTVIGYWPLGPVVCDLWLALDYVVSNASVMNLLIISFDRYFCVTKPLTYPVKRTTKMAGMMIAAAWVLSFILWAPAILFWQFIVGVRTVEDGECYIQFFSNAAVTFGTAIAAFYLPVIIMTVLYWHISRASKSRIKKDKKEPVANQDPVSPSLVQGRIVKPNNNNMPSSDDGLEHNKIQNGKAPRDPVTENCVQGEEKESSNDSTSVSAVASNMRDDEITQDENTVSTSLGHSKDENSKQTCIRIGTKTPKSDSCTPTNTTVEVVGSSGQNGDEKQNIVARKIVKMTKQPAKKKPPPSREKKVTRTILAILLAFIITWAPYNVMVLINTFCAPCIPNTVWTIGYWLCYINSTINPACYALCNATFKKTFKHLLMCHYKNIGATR

[10] = target: Sodium-dependent dopamine transporter (Homo sapiens, UniProt Q01959)
[11] = target: Prothrombin (Homo sapiens, UniProt P00734); format: functional
[12] = target: T6, Alpha-2A adrenergic receptor (Homo sapiens, UniProt P08913)
T6 sequence (P08913 whole entry): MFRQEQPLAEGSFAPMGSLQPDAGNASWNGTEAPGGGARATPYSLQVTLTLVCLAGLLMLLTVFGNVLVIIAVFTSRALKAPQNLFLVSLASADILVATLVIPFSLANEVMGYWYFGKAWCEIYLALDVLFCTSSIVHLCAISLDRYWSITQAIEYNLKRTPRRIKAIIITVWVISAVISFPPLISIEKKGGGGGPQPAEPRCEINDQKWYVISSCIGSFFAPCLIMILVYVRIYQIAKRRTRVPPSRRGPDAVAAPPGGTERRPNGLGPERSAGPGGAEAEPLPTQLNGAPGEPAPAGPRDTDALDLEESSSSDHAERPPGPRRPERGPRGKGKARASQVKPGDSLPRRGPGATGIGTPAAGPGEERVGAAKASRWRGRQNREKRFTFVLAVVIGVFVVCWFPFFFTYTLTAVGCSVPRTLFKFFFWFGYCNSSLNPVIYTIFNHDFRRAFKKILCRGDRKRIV

[13] = target: 5-hydroxytryptamine receptor 2B (Homo sapiens, UniProt P41595); format: functional, cell-based
[14] = target: D(1A) dopamine receptor (Homo sapiens, UniProt P21728)
Note: assay procedure not described here.

Chain of Sodium-dependent dopamine transporter (Q01959 whole entry): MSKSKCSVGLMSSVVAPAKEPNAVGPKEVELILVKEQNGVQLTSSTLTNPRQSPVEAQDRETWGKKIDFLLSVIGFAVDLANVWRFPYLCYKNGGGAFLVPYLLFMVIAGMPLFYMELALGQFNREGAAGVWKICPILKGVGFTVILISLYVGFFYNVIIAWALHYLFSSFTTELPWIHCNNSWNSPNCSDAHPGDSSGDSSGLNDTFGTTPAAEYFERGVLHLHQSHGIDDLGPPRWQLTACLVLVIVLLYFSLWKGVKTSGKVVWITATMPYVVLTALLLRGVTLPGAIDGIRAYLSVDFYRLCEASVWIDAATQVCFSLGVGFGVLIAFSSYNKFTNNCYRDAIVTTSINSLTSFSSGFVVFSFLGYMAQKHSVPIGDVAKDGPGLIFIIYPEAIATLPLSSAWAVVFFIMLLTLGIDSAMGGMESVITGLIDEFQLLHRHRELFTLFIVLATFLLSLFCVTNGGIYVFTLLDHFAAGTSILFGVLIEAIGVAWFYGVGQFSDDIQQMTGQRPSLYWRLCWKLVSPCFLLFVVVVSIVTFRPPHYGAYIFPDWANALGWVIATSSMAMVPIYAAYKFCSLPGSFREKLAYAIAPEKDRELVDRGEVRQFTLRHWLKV
Chain of D(3) dopamine receptor (P35462 whole entry): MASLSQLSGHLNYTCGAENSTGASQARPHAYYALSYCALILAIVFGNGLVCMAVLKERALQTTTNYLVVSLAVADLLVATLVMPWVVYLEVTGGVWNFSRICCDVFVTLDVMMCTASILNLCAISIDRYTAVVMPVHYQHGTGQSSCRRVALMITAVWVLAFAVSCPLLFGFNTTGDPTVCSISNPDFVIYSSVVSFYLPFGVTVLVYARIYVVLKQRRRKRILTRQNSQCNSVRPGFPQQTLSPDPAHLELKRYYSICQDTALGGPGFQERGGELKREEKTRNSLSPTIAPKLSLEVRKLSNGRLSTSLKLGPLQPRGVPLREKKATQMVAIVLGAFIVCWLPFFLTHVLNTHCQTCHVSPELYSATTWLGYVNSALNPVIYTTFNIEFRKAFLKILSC
Chain of D(1A) dopamine receptor (P21728 whole entry): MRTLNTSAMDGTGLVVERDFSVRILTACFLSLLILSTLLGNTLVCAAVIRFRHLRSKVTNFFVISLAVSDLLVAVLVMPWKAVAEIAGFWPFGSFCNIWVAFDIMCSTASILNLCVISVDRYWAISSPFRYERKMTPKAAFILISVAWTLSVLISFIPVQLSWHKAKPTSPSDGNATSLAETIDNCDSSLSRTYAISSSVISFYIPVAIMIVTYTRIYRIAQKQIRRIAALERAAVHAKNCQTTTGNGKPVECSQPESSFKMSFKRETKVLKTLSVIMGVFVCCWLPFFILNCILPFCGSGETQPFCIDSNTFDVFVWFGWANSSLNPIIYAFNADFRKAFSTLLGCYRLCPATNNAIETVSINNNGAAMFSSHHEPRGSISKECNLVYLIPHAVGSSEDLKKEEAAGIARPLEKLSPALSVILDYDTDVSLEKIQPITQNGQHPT
Chain of 5-hydroxytryptamine receptor 2B (P41595 whole entry): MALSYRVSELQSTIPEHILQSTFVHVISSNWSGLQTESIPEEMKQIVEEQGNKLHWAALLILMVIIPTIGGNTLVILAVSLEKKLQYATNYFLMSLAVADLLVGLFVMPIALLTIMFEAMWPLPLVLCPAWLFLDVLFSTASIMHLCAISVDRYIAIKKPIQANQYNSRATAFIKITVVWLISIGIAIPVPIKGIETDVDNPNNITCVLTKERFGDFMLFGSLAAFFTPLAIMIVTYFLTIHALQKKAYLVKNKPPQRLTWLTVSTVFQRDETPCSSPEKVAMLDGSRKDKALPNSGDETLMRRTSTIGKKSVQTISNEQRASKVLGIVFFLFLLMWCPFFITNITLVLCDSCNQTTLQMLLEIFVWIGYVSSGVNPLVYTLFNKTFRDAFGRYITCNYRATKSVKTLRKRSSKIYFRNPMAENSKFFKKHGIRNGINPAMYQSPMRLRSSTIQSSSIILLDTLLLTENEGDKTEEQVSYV
T1 sequence (P23219 whole entry): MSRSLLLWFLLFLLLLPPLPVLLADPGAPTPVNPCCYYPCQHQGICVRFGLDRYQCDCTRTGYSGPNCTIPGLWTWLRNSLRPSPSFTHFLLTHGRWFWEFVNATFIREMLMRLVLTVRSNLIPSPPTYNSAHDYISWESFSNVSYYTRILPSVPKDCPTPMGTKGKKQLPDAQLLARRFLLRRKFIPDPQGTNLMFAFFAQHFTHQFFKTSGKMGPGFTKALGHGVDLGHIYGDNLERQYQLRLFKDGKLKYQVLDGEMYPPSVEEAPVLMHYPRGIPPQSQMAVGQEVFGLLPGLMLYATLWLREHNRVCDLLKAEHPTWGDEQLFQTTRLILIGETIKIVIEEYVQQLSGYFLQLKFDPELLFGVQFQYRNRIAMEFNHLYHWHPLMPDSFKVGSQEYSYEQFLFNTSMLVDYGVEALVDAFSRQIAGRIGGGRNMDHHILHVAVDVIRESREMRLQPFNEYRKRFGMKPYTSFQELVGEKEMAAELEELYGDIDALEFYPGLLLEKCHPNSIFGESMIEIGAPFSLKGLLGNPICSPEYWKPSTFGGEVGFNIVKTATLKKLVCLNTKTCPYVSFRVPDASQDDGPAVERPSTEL
Chain of Sodium-dependent noradrenaline transporter (P23975 whole entry): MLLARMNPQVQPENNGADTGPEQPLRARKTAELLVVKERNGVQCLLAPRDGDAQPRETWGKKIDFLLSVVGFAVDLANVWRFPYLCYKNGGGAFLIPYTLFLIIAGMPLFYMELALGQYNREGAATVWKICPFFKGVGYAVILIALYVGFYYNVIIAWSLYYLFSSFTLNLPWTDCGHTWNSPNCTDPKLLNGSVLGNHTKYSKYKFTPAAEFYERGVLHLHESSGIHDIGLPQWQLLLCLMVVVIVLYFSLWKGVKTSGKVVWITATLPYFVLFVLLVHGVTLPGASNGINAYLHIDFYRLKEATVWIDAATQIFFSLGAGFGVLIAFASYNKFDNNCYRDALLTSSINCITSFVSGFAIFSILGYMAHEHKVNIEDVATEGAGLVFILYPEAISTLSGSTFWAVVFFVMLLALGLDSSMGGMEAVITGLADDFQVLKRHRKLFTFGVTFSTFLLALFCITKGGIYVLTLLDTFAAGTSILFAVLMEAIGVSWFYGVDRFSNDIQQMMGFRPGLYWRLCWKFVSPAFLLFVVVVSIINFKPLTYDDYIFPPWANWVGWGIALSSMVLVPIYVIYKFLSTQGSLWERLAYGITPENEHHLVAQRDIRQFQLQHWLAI
Chain of Vascular endothelial growth factor receptor 2 (P35968 whole entry): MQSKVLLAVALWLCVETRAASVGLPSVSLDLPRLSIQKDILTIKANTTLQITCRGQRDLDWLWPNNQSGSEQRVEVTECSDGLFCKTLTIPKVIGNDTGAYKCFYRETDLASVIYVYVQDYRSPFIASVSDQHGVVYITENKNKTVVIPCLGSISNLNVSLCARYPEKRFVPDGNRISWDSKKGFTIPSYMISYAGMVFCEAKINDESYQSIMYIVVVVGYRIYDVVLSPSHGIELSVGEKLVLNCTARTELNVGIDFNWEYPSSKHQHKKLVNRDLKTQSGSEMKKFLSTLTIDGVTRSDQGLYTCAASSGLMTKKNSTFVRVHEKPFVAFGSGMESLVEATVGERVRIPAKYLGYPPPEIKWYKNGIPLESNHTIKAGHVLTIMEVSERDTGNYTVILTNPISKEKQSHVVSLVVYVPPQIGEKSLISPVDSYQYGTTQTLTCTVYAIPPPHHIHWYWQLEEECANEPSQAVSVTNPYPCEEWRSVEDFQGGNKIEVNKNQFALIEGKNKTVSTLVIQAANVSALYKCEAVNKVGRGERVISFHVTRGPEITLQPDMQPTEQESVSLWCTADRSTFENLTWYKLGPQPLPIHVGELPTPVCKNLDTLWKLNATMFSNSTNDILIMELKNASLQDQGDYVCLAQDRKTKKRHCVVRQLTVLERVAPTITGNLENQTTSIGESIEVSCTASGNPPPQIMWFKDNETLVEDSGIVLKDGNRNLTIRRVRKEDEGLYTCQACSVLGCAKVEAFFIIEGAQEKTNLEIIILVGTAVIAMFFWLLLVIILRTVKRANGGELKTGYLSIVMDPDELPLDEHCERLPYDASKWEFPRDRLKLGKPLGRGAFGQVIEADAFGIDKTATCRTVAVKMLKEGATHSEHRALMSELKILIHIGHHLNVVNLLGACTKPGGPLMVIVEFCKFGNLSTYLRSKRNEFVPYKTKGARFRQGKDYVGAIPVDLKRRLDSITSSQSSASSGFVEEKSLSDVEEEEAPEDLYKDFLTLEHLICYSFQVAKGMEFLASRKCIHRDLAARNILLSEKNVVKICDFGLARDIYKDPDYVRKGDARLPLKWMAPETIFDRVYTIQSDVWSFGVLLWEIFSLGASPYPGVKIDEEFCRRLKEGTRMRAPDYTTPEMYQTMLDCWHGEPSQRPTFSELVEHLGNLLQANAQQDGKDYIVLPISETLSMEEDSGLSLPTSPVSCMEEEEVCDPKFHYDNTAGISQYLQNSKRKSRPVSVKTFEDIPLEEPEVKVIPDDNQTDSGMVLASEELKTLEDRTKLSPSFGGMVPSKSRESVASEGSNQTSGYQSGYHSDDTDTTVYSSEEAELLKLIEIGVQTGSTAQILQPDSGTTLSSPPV

SMILES | AC50 [1] [µM] | AC50 [2] [µM] | AC50 [3] [µM] | AC50 [4] [µM] | AC50 [5] [µM] | AC50 [6] [µM] | AC50 [7] [µM] | AC50 [8] [µM] | AC50 [9] [µM] | AC50 [10] [µM] | AC50 [11] [µM] | AC50 [12] [µM] | AC50 [13] [µM] | AC50 [14] [µM]
C[C@@H]1CN(c2c(F)c(N)c3c(=O)c(C(=O)O)cn(C4CC4)c3c2F)C[C@H](C)N1 [SPARFLOXACIN] | > 30 | > 30 | > 30 | > 30 | > 30 | > 30 | > 30 | > 30 | > 30 | > 30 | > 30 | > 30 | > 30 | > 30
Cc1ccc(Cl)c(Nc2ccccc2C(=O)O)c1Cl [MECLOFENAMIC ACID] | 0.0142 | > 30 | > 30 | > 30 | > 30 | > 30 | > 30 | 0.0171 | > 30 | > 30 | > 30 | > 30 | > 30 | > 30
CC1=C(/C=C/C(C)=C/C=C/C(C)=C\C(=O)O)C(C)(C)CCC1 [ISOTRETINOIN] |  | > 30 | > 30 | > 30 | > 30 |  | > 30 |  | > 30 | > 30 | > 30 | > 30 | > 30 | > 30
C#C[C@]1(OC(C)=O)CC[C@H]2[C@@H]3CCC4=CC(=O)CC[C@@H]4[C@H]3CC[C@@]21C [NORETHINDRONE ACETATE] | > 30 | > 30 | 19.1 | > 30 | > 30 |  | > 30 | > 30 | 9.44 | > 30 | > 30 | > 30 | > 30 | > 30
NS(=O)(=O)c1cc2c(cc1Cl)NC(C(Cl)Cl)NS2(=O)=O (centres undefined) [TRICHLORMETHIAZIDE] | > 30 | > 30 | > 30 | > 30 | > 30 |  | > 30 | > 30 | > 30 | > 30 | > 30 | > 30 | > 30 | > 30
COc1cccc2c1C(=O)c1c(O)c3c(c(O)c1C2=O)C[C@@](O)(C(=O)CO)C[C@@H]3O[C@H]1C[C@H](N)[C@H](O)[C@H](C)O1 [DOXORUBICIN] | > 30 | > 30 | > 30 | 24.7 |  | > 30 | > 30 | 15.5 | > 30 | > 30 | > 30 | > 30 | > 30 | > 30
N=C(N)NC(=O)c1nc(Cl)c(N)nc1N [AMILORIDE] | > 30 | > 30 | > 30 | > 30 |  | > 30 | 11.1 | > 30 | > 30 | > 30 | > 30 | > 30 | > 30 | > 30
CC(=O)OCC(=O)[C@@]1(OC(C)=O)[C@@H](C)C[C@H]2[C@@H]3C[C@H](F)C4=CC(=O)C=C[C@]4(C)[C@@]3(F)[C@@H](O)C[C@@]21C [DIFLORASONE DIACETATE] | > 30 | > 30 | > 30 | > 30 | > 30 |  | > 30 | > 30 | > 30 | > 30 | > 30 | > 30 | > 30 | > 30
N[C@@H](Cc1ccc(N(CCCl)CCCl)cc1)C(=O)O | > 30 | 24.8 | > 30 | > 30 | > 30 |  | > 30 | 6.82 | 13.6 | 16.9 | > 30 | 11.2 | > 30 | > 30
CC(CN(C)C)CN1c2ccccc2CCc2ccccc21 (centres undefined) [TRIMIPRAMINE] | > 30 | 0.0178 | 18.5 | 9.64 | > 30 | > 30 | 20.1 | > 30 |  | 10.9 | > 30 | 1.27 | > 30 | 
C[C@H]1C[C@H]2[C@@H]3CCC4=CC(=O)C=C[C@]4(C)[C@@]3(F)[C@@H](O)C[C@]2(C)[C@@]1(O)C(=O)CO [BETAMETHASONE] | > 30 | > 30 | > 30 | > 30 | > 30 |  | > 30 | > 30 | > 30 | > 30 | > 30 | > 30 | > 30 | > 30
CC1=C(/C=C/C(C)=C\C=C\C(C)=C\C(=O)O)C(C)(C)CCC1 [ALITRETINOIN] |  | > 30 | > 30 | > 30 | > 30 |  | > 30 |  | > 30 | > 30 | > 30 | > 30 | > 30 | > 30
COc1cccc2c1C(=O)c1c(O)c3c(c(O)c1C2=O)C[C@@](O)(C(=O)CO)C[C@@H]3O[C@H]1C[C@H](N)[C@@H](O)[C@H](C)O1 [EPIRUBICIN] | > 30 | > 30 | > 30 | 8.17 |  | > 30 | > 30 | 2.44 | 25.2 | > 30 | > 30 | > 30 | > 30 | > 30
O=NN(CCCl)C(=O)NCCCl [CARMUSTINE] |  | > 30 | > 30 |  |  |  | > 30 |  | > 30 | > 30 |  | > 30 | > 30 | > 30
